Data reported in patent publication US11104690B2, “Indazole derivatives useful as inhibitors of diacylglyceride O-acyltransferase 2” (Merck Sharp & Dohme Corp., priority 2016, dated 2021).

Target: Human DGAT2 (Homo sapiens (Human), UniProt Q96PD7)
Test: DGAT2 Enzymatic Activity Assay (triolein formation, LC/MS/MS)
Type: biochemical
Conditions: hDGAT2 Sf-9 membrane prep; 25 μM diolein, 10 μM oleoyl-CoA; room temperature
Outline: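 Triolein product, measured by LC/MS/MS as a ratio to internal standard, gave % inhibition and 4-parameter IC50. Reaction: 25 μM diolein, 10 μM oleoyl-CoA, 10 ng/μL hDGAT2 Sf-9 membrane, 100 mM Tris.Cl pH 7.0, 20 mM MgCl2, 5% ethanol, room temperature.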

Sequence of Human DGAT2 (Q96PD7 whole entry): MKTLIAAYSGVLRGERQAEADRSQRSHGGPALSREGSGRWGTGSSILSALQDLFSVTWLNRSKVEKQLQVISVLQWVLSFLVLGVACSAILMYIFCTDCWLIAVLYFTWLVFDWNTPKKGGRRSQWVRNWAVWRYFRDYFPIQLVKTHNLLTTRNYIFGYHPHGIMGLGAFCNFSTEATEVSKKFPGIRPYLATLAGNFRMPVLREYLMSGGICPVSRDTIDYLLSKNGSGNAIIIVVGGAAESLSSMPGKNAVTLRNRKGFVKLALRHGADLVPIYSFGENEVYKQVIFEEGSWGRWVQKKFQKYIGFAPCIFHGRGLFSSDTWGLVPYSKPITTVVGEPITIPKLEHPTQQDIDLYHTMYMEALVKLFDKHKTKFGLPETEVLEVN

| SMILES | IC50 [nM] |
| --- | --- |
| O=C(N[C@@H]1CCCC[C@@H]1O)c1ccc2c(-c3ccccc3Cl)nn(-c3ccc(F)cc3)c2c1 (racemic) [Example 66] | 68 |
| CC1(NC(=O)c2ccc3c(-c4ccnc(C(F)(F)F)c4)nn(-c4ccc(F)cc4)c3c2)CCS(=O)(=O)C1 (single isomer, unassigned) [Example 159-A, 1-(4-fluorophenyl)-N-(3-methyl-1,1-dioxidotetrahydrothiophen-3-yl)-3-[2-(trifluoromethyl)pyridin-4-yl]-1H-indazole-6-carboxamide] | 469 |
| O=C(NCc1ccc(C(F)(F)F)nc1)c1ccc2c(-c3ccccc3Cl)nn(-c3ccc(F)cc3)c2c1 [Example 18, 3-(2-chlorophenyl)-1-(4-fluorophenyl)-N-{[6-(trifluoromethyl)pyridin-3-yl]methyl}-1H-indazole-6-carboxamide] | 64 |
| CC1(NC(=O)c2ccc3c(-c4ccccc4Cl)nn(-c4ccccn4)c3c2)CCS(=O)(=O)C1 (single isomer, unassigned) [Example 174-B, 3-(2-chlorophenyl)-N-(3-methyl-1,1-dioxidotetrahydrothiophen-3-yl)-1-pyridin-2-yl-1H-indazole-6-carboxamide] | 75 |
| CC1(NC(=O)c2ccc3c(-c4cc(C(F)(F)F)ccc4Cl)nn(-c4ccc(F)cc4)c3c2)CCS(=O)(=O)C1 (single isomer, unassigned) [Example 160-A, 3-[2-chloro-5-(trifluoromethyl)phenyl]-1-(4-fluorophenyl)-N-(3-methyl-1,1-dioxidotetrahydrothiophen-3-yl)-1H-indazole-6-carboxamide] | 6.9 |
| O=C(N[C@@H]1C[C@H](CO)[C@@H](O)[C@H]1O)c1ccc2c(-c3ccccc3Cl)nn(-c3ccc(F)cc3)c2c1 [Example 87, 3-(2-chlorophenyl)-N-[(1R,2S,3R,4R)-2,3-dihydroxy-4-(hydroxymethyl)cyclopentyl]-1-(4-fluorophenyl)-1H-indazole-6-carboxamide] | 198 |
| O=C(NC1CCS(=O)(=O)C1)c1ccc2c(-c3cncnc3)nn(-c3ccc(F)cc3)c2c1 (single isomer, unassigned) [Example 133-A, N-(1,1-dioxidotetrahydrothiophen-3-yl)-1-(4-fluorophenyl)-3-pyrimidin-5-yl-1H-indazole-6-carboxamide] | 846 |
| O=C(c1ccc2c(-c3ccccc3Cl)nn(-c3ccc(F)cc3)c2c1)N1CC2CC1CS(=O)(=O)C2 (racemic) [Example 23, 3-(2-chlorophenyl)-6-[(3,3-dioxido-3-thia-6-azabicyclo[3.2.1]oct-6-yl)carbonyl]-1-(4-fluorophenyl)-1H-indazole] | 403 |
| O=C(N[C@@H]1CCC[C@H]1O)c1ccc2c(-c3ccccc3Cl)nn(-c3ccc(F)cc3)c2c1 [Example 94, 3-(2-chlorophenyl)-1-(4-fluorophenyl)-N-[(1R,2R)-2-hydroxycyclopentyl]-1H-indazole-6-carboxamide] | 772 |
| N#Cc1cccc(-c2nn(-c3ccc(F)cc3)c3cc(C(=O)NC4CCS(=O)(=O)C4)ccc23)c1 (single isomer, unassigned) [Example 129-A] | 10 |
| O=C(NCc1cncnc1)c1ccc2c(-c3ccccc3Cl)nn(-c3ccc(F)cc3)c2c1 [Example 38, 3-(2-chlorophenyl)-1-(4-fluorophenyl)-N-(pyrimidin-5-ylmethyl)-1H-indazole-6-carboxamide] | 368 |
| Cn1cc(C(C)(C)NC(=O)c2ccc3c(-c4ccccc4Cl)nn(-c4ccc(F)cc4)c3c2)cn1 [Example 16, 3-(2-chlorophenyl)-1-(4-fluorophenyl)-N-[1-methyl-1-(1-methyl-1H-pyrazol-4-yl)ethyl]-1H-indazole-6-carboxamide] | 120 |
| O=C(N[C@@H]1CCCC[C@H]1O)c1ccc2c(-c3ccccc3Cl)nn(-c3ccc(F)cc3)c2c1 (racemic) [Example 67] | 40 |
| CC1(NC(=O)c2ccc3c(-c4ccccc4Cl)nn(-c4ccc(F)cn4)c3c2)CCS(=O)(=O)C1 (single isomer, unassigned) [Example 172-A] | 39 |
| N[C@H]1CS(=O)(=O)C[C@@H]1NC(=O)c1ccc2c(-c3ccccc3Cl)nn(-c3ccc(F)cc3)c2c1 [Example 8, N-[(3R,4R)-4-amino-1,1-dioxidotetrahydrothiophen-3-yl]-3-(2-chlorophenyl)-1-(4-fluorophenyl)-1H-indazole-6-carboxamide] | 554 |
| C[C@H](NC(=O)c1ccc2c(-c3ccccc3Cl)nn(-c3ccc(F)cc3)c2c1)c1cnc(C(F)(F)F)nc1 [Example 50, 3-(2-chlorophenyl)-1-(4-fluorophenyl)-N-{(1S)-1-[2-(trifluoromethyl)pyrimidin-5-yl]ethyl}-1H-indazole-6-carboxamide] | 34 |

| SMILES | IC50 [nM] |
| --- | --- |
| O=C(N[C@@H](CO)[C@@H](O)c1ccccc1)c1ccc2c(-c3ccccc3Cl)nn(-c3ccc(F)cc3)c2c1 [Example 80, 3-(2-chlorophenyl)-1-(4-fluorophenyl)-N-[(1S,2S)-2-hydroxy-1-(hydroxymethyl)-2-phenylethyl]-1H-indazole-6-carboxamide] | 127 |
| Cc1noc([C@H](NC(=O)c2ccc3c(-c4ccccc4Cl)nn(-c4ccc(F)cc4)c3c2)[C@H](C)O)n1 (stereo in doubt) [Example 48, 3-(2-chlorophenyl)-1-(4-fluorophenyl)-N-[(1R,2S)-2-hydroxy-1-(3-methyl-1,2,4-oxadiazol-5-yl)propyl]-1H-indazole-6-carboxamide] | 96 |
| CC1(NC(=O)c2ccc3c(-c4cccc(-n5cccn5)c4)nn(-c4ccc(F)cc4)c3c2)CCS(=O)(=O)C1 (racemic) [Example 165, 1-(4-fluorophenyl)-N-(3-methyl-1,1-dioxidotetrahydrothiophen-3-yl)-3-[3-(1H-pyrazol-1-yl)phenyl]-1H-indazole-6-carboxamide] | 7 |
| CC(C)(C)OC(=O)N1CC[C@@H](NC(=O)c2ccc3c(-c4ccccc4Cl)nn(-c4ccc(F)cc4)c3c2)C1 [Example 101, tert-butyl (3R)-3-({[3-(2-chlorophenyl)-1-(4-fluorophenyl)-1H-indazol-6-yl]carbonyl}amino)pyrrolidine-1-carboxylate] | 136 |
| CC1(NC(=O)c2ccc3c(-c4cccc(C#N)c4)nn(-c4ccc(F)cc4)c3c2)CCS(=O)(=O)C1 (single isomer, unassigned) [Example 117-B, 3-(3-cyanophenyl)-1-(4-fluorophenyl)-N-(3-methyl-1,1-dioxidotetrahydrothiophen-3-yl)-1H-indazole-6-carboxamide] | 6.4 |
| O=C(NC1(CO)CCS(=O)(=O)C1)c1ccc2c(-c3ccccc3Cl)nn(-c3ccc(F)cc3)c2c1 (racemic) [Example 92, 3-(2-chlorophenyl)-1-(4-fluorophenyl)-N-[3-(hydroxymethyl)-1,1-dioxidotetrahydrothiophen-3-yl]-1H-indazole-6-carboxamide] | 372 |
| CC(C)[C@@H](CO)NC(=O)c1ccc2c(-c3cc(C#N)ccc3Cl)nn(-c3ccc(F)cc3)c2c1 [Example 123, 3-(2-chloro-5-cyanophenyl)-1-(4-fluorophenyl)-N-[(1S)-1-(hydroxymethyl)-2-methylpropyl]-1H-indazole-6-carboxamide] | 3.8 |
| O=C(NC1CCS(=O)(=O)C1)c1ccc2c(-c3cccnc3)nn(-c3ccc(F)cc3)c2c1 (single isomer, unassigned) [Example 134-A, N-(1,1-dioxidotetrahydrothiophen-3-yl)-1-(4-fluorophenyl)-3-pyridin-3-yl-1H-indazole-6-carboxamide] | 212 |
| CC1(NC(=O)c2ccc3c(-c4cc(Cl)cc(Cl)c4)nn(-c4ccc(F)cc4)c3c2)CCS(=O)(=O)C1 (single isomer, unassigned) [Example 157-A, 3-(3,5-dichlorophenyl)-1-(4-fluorophenyl)-N-(3-methyl-1,1-dioxidotetrahydrothiophen-3-yl)-1H-indazole-6-carboxamide] | 61 |
| COC(=O)c1cccc(-n2nc(-c3ccccc3Cl)c3ccc(C(=O)NC4(C)CCS(=O)(=O)C4)cc32)c1 (racemic) [Example 180, methyl 3-{3-(2-chlorophenyl)-6-[(3-methyl-1,1-dioxidotetrahydrodioxidotetra-hydrodioxidotetrahydrodioxido-tetrahydro-thiophen-3-yl)carbamoyl]-1H-indazol-1-yl}benzoate] | 222 |
| COc1cc(-c2nn(-c3ccc(F)cc3)c3cc(C(=O)NC4CCS(=O)(=O)C4)ccc23)c(Cl)cn1 (single isomer, unassigned) [Example 137-A, 3-(5-chloro-2-methoxypyridin-4-yl)-N-(1,1-dioxidotetrahydrothiophen-3-yl)-1-(4-fluorophenyl)-1H-indazole-6-carboxamide] | 5.4 |
| CC(O)CC(C)(C)NC(=O)c1ccc2c(-c3ccccc3Cl)nn(-c3ccc(F)cc3)c2c1 (racemic) [Example 113, 3-(2-chlorophenyl)-1-(4-fluorophenyl)-N-(3-hydroxy-1,1-dimethylbutyl)-1H-indazole-6-carboxamide] | 41 |
| Cc1nc(C(C)NC(=O)c2ccc3c(-c4ccccc4Cl)nn(-c4ccc(F)cc4)c3c2)no1 (racemic) [Example 41, 3-(2-chlorophenyl)-1-(4-fluorophenyl)-N-[1-(5-methyl-1,2,4-oxadiazol-3-yl)ethyl]-1H-indazole-6-carboxamide] | 519 |
| O=C(NC1CCS(=O)(=O)C1)c1ccc2c(-c3ccccc3Cl)nn(Cc3ccc(F)cc3)c2c1 (stereo not shown) [Example 170, 3-(2-chlorophenyl)-N-(1,1-dioxidotetrahydrothiophen-3-yl)-1-(4-fluorobenzyl)-1H-indazole-6-carboxamide] | 179 |
| COC(=O)C1(NC(=O)c2ccc3c(-c4ccccc4Cl)nn(-c4ccc(F)cc4)c3c2)CC[S+]([O-])C1 (racemic) [Example 89, methyl 3-({[3-(2-chlorophenyl)-1-(4-fluorophenyl)-1H-indazol-6-yl]carbonyl}amino)tetra-hydrothiophene-3-carboxylate 1-oxide] | 125 |
